In US10316034B2, “Pharmaceutical salt forms of an inhibitor of semicarbazide-sensitive amine oxidase (SSAO)” (BENEVOLENTAI CAMBRIDGE LIMITED, priority 2015, dated 2019):
Entries after “also recorded” stand apart in the source; their conditions may differ. Like-named read-outs stand apart in the source and are kept apart here.

Experiments:
Assay type in all cases: physicochemical
[1] = Hygroscopicity on storage at controlled temperature and relative humidity
Protocol: The four crystalline salts were tested in order to determine their ease of handling, hygroscopicity, and thermal stability. The hydrochloride and phosphate salts have the advantage of improved handling properties over the free base glass/gum by virtue of their crystallinity. […] Both salts deliquesced on overnight storage at 40° C. in an environment having 75% relative humidity.
The mesylate and sulphate salts have the advantage of improved handling properties over the free base gum by virtue of their crystallinity. […] The mesylate salt deliquesced following storage for 3 days at 40° C. in an environment having 75% relative humidity. The sulphate salt was unchanged after storage for 7 days at 40° C. in an environment having 75% relative humidity.

[2] = Hygroscopicity during long term storage, assessed by Karl Fisher (KF) titration; conditions: GMP-type packaging with desiccant
Protocol: The water content of each sample was measured on a Mettler Toledo DL39 Coulometer using Hydranal Coulomat AG reagent and an argon purge. Weighed solid samples were introduced into the vessel on a platinum TGA pan which was connected to a subaseal to avoid water ingress. Approx 10 mg of sample was used per titration and duplicate determinations were made.
(§1) (3S)-Tetrahydrofuran-3-yl (4S)-4-isopropyl-1,4,6,7-tetrahydro-5H-imidazo[4,5-c]-pyridine-5-carboxylate mesylate was also assessed for stability and hygroscopicity when dispensed in 3 g aliquots in double LDPE liners, sealed with cable tie and placed, with a desiccant pouch into a foil bag, which was subsequently heat-sealed. The foil bag was then placed into an HDPE keg fitted with an HDPE lid. These conditions mirror typical GMP level storage conditions. Stability was assessed by HPLC and hygroscopicity was assessed by Karl Fisher (KF) titration.

[3] = Stability during long term storage, assessed by HPLC; conditions: GMP-type packaging with desiccant
Protocol: Purity analysis was performed on an Agilent HP1100 series system equipped with a diode array detector and using ChemStation software vB.02.01-SR1 using the method detailed below.
as §1

[4] = overnight storage at 40° C., 75% relative humidity
[5] = after 6 months at 40° C./75% RH

With CC(C)[C@H]1c2nc[nH]c2CCN1C(=O)O[C@H]1CCOC1.Cl [Hydrochloride salt, (3S)-Tetrahydrofuran-3-yl (4S)-4-isopropyl-1,4,6,7-tetrahydro-5H-imidazo[4,5-c]-pyridine-5-carboxylate hydrochloride] the “Hygroscopicity (in words)” value ([1]; hydrochloride) was “somewhat hygroscopic; also recorded: highly hygroscopic” and the Hygroscopicity [1, 4] was “deliquesced”.
For CC(C)[C@H]1c2nc[nH]c2CCN1C(=O)O[C@H]1CCOC1.O=P(O)(O)O [Phosphate salt, (3S)-Tetrahydrofuran-3-yl (4S)-4-isopropyl-1,4,6,7-tetrahydro-5H-imidazo[4,5-c]-pyridine-5-carboxylate phosphate], the Hygroscopicity [1, 4] was “deliquesced” and the “Hygroscopicity (in words)” value ([1]; phosphate) was “somewhat hygroscopic; also recorded: highly hygroscopic”.
For CC(C)[C@H]1c2nc[nH]c2CCN1C(=O)O[C@H]1CCOC1.O.O=S(=O)(O)O [Sulfate salt (.1.5H2O), (3S)-Tetrahydrofuran-3-yl (4S)-4-isopropyl-1,4,6,7-tetrahydro-5H-imidazo[4,5-c]-pyridine-5-carboxylate sulphate hydrate], the Hygroscopicity ([1]; 40° C./75% RH for up to 7 days, listed as sulphate salt, sulphate hydrate) was “unchanged” and the Hygroscopicity ([1]; 40° C./75% RH for up to 7 days, sulphate hydrate) was “No change at 40° C./”.
In the case of CC(C)[C@H]1c2nc[nH]c2CCN1C(=O)O[C@H]1CCOC1.CS(=O)(=O)O [Mesylate salt, (3S)-Tetrahydrofuran-3-yl (4S)-4-isopropyl-1,4,6,7-tetrahydro-5H-imidazo[4,5-c]-pyridine-5-carboxylate mesylate], the “Water uptake (KF)” value [2, 5] is reported as 0.1%, the “Water uptake (KF)” value ([2]; over 3 years at 25° C./60% RH) is reported as “no water uptake” and the Hygroscopicity ([1]; 40° C./75% RH after 3 days, listed as mesylate salt, mesylate) is reported as “deliquesced”. For the same molecule, the “Degradation (HPLC)” value [3, 5] was 0.1% and the “Degradation (HPLC)” value ([3]; over 3 years at 25° C./60% RH) was 0.1%.
With CC(C)[C@H]1c2[nH]cnc2CCN1C(=O)O[C@H]1CCOC1 [Free base, (3S)-Tetrahydrofuran-3-yl (4S)-4-isopropyl-1,4,6,7-tetrahydro-5H-imidazo[4,5-c]pyridine-5-carboxylate] the “Hygroscopicity (in words)” value [1] was “hygroscopic”.
